Structures are written as SMILES.

These results are taken from patent publication US12157730B2, “Heteroaryl derivative, method for producing same, and pharmaceutical composition comprising same as effective component” (VORONOI INC., priority 2019, dated 2024).

For the test, the target named is T1, Ba/F3 cell EGFR Exon20 ins NPH (Homo sapiens, UniProt P00533, INS773NPH).
T1 construct: expressed in transfected cells; host or cells: Ba/F3
The test is described as follows: Ba/F3 cell proliferation suppression, EGFR Exon20 ins NPH. In kind it is cell-based. To be noted: GI50 class; Ba/F3 cell line with NPH inserted at Exon20 of EGFR; 72 hours. In outline:
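Growth suppression determined as GI50 following 72 h exposure across 12 concentrations up to 50 um, with viability by luminescent ATP assay (CellTiter-Glo).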
For the compound `C=CC(=O)Nc1cc(Nc2cc(N3OCC[C@@H]3c3ccc(F)c(F)c3F)ncn2)c(OC)cc1N1CCN(C)CC1` [compound 572, N-(4-methoxy-2-(4-methylpiperazine-1-yl)-5-((6-((R)-3-(2,3,4-trifluorophenyl)isoxazolidine-2-yl)pyrimidine-4-yl)amino)phenyl) acrylamide], the “Ba/F3 (NPH) Activity” value is recorded as “A (GI50 < 50 nM)”. The entry for `C=CC(=O)Nc1cc(Nc2cc(N3OCC[C@@H]3c3cccc(C)c3F)ncn2)c(OC)cc1N1CCC(N2CCN(C(C)C)CC2)CC1` [compound 911, N-(5-((6-((R)-3-(2-fluoro-3-methylphenyl)isoxazolidine-2-yl)pyrimidine-4-yl)amino)-2-(4-(4-isopropylpiperazine-1-yl)piperidine-1-yl)-4-methoxyphenyl) acrylamide] is “A (GI50 < 50 nM)”; for `C=CC(=O)Nc1cc(Nc2cc(N3OCC[C@@H]3c3ccc(F)c(Cl)c3F)ncn2)c(OC)cc1N1CC[C@@H](N(C)C)C1` [compound 599, N-(5-((6-((R)-3-(3-chloro-2,4-difluorophenyl)isoxazolidine-2-yl)pyrimidine-4-yl)amino)-2-((R)-3-(dimethylamino)pyrolidine-1-yl)-4-methoxyphenyl) acrylamide] it is “A (GI50 < 50 nM)”.

As to `C=CC(=O)Nc1cc(Nc2cc(N3OCC[C@@H]3c3cc(F)cc(Cl)c3)ncn2)c(OC)cc1N1CCC(N2C[C@@H](C)O[C@@H](C)C2)CC1` [compound 594, N-(5-((6-((R)-3-(3-chloro-5-fluorophenyl)isoxazolidine-2-yl)pyrimidine-4-yl)amino)-2-(4-((2S,6R)-2,6-dimethylmorpholino)piperidine-1-yl)-4-methoxyphenyl) acrylamide], the “Ba/F3 (NPH) Activity” value is “A (GI50 < 50 nM)”. Take `C=CC(=O)Nc1cc(Nc2cc(N3OCC[C@@H]3c3cccc(C#N)c3)ncn2)c(OC)cc1N1CCC(N2CCN(C)CC2)CC1` [compound 398, N-(5-((6-((R)-3-(3-cyanophenyl)isoxazolidine-2-yl)pyrimidine-4-yl)amino)-4-methoxy-2-(4-(4-methylpiperazine-1-yl)piperidine-1-yl)phenyl) acrylamide]: the “Ba/F3 (NPH) Activity” value was “A (GI50 < 50 nM)”. On to `C=CC(=O)Nc1cc(Nc2cc(N3OCC[C@@H]3c3cccc(F)c3)ncn2)c(OC)cc1N1CC[C@H](N2CCOCC2)C1` [compound 321, N-(5-((6-((R)-3-(3-fluorophenyl)isoxazolidine-2-yl)pyrimidine-4-yl)amino)-4-methoxy-2-((S)-3-morpholinopyrolidine-1-yl)phenyl)acrylamide], for which the “Ba/F3 (NPH) Activity” value is reported as “B (50 nM ≤ GI50 < 500 nM)”.

Consider `C=CC(=O)Nc1cc(Nc2cc(N3OCC[C@@H]3c3cccc(F)c3F)ncn2)c(OC)cc1N1CC2CCC(C1)O2` [compound 887, N-(2-(8-oxa-3-azabicyclo[3.2.1]octan-3-yl)-5-((6-((R)-3-(2,3-difluorophenyl)isoxazolidine-2-yl)pyrimidine-4-yl)amino)-4-methoxyphenyl) acrylamide], for which the “Ba/F3 (NPH) Activity” value is on record as “A (GI50 < 50 nM)”. For `C=CC(=O)Nc1cc(Nc2cc(N3OCC[C@@H]3c3ccc(F)cc3F)ncn2)c(OC)cc1N1C[C@@H]2C[C@H]1CN2CC` [compound 354, N-(5-((6-((R)-3-(2,4-difluorophenyl)isoxazolidine-2-yl)pyrimidine-4-yl)amino)-2-((1S,4S)-5-ethyl-2,5-diazabicyclo[2.2.1]heptane-2-yl)-4-methoxyphenyl) acrylamide], the “Ba/F3 (NPH) Activity” value was “A (GI50 < 50 nM)”. The entry for `C=CC(=O)Nc1cc(Nc2cc(N3OCC[C@@H]3c3ccc(F)c(Cl)c3F)ncn2)c(OC)cc1N1CCO[C@H](C)C1` [compound 666, N-(5-((6-((R)-3-(3-chloro-2,4-difluorophenyl)isoxazolidine-2-yl)pyrimidine-4-yl)amino)-4-methoxy-2-((R)-2-methylmorpholino)phenyl)acrylamide] is “B (50 nM ≤ GI50 < 500 nM)”; for `C=CC(=O)Nc1cc(Nc2cc(N3OCC[C@@H]3c3cccc(Cl)c3F)ncn2)c(OC)cc1N1CCC(N2C[C@H]3CC[C@@H](C2)O3)CC1` [compound 322, N-(2-(4-((1R,5S)-8-oxa-3-azabicyclo[3.2.1]octan-3-yl)piperidine-1-yl)-5-((6-((R)-3-(3-chloro-2-fluorophenyl)isoxazolidine-2-yl)pyrimidine-4-yl)amino)-4-methoxyphenyl) acrylamide] it is “A (GI50 < 50 nM)”. For `C=CC(=O)Nc1cc(Nc2cc(N3OCC[C@@H]3c3c(F)ccc(F)c3F)ncn2)c(OC)cc1N1CCC(N2CCN(C(C)C)CC2)CC1` [compound 643, N-(2-(4-(4-isopropylpiperazine-1-yl)piperidine-1-yl)-4-methoxy-5-((6-((R)-3-(2,3,6-trifluorophenyl)isoxazolidine-2-yl)pyrimidine-4-yl)amino)phenyl)acrylamide], the “Ba/F3 (NPH) Activity” value is reported as “A (GI50 < 50 nM)”. Next, `C=CC(=O)Nc1cc(Nc2cc(N3OCC[C@@H]3c3cc(F)cc(F)c3)ncn2)c(OC)cc1N1CC(N2CCN(C3CC3)CC2)C1` [compound 588, N-(2-(3-(4-cyclopropylpiperazine-1-yl)azetidine-1-yl)-5-((6-((R)-3-(3,5-difluorophenyl)isoxazolidine-2-yl)pyrimidine-4-yl)amino)-4-methoxyphenyl) acrylamide]: “B (50 nM ≤ GI50 < 500 nM)”; `C=CC(=O)Nc1cc(Nc2cc(N3OCC[C@@H]3c3cc(F)ccc3F)ncn2)c(OC)cc1N1CCC(N2CCN(C3CCCC3)CC2)CC1` [Example 100, N-(2-(4-(4-cyclopentylpiperazine-1-yl)piperidine-1-yl)-5-((6-((R)-3-(2,5-difluorophenyl)isoxazolidine-2-yl)pyrimidine-4-yl)amino)-4-methoxyphenyl) acrylamide]: “A (GI50 < 50 nM)”. Next, `C=CC(=O)Nc1cc(Nc2cc(N3OCC[C@@H]3c3cccc(Cl)c3)ncn2)c(OC)cc1N1CCC(N2C[C@@H](C)O[C@@H](C)C2)CC1` [compound 415, N-(5-((6-((R)-3-(3-chlorophenyl)isoxazolidine-2-yl)pyrimidine-4-yl)amino)-2-(4-((2S,6R)-2,6-dimethylmorpholino)piperidine-1-yl)-4-methoxyphenyl) acrylamide]: “A (GI50 < 50 nM)”; `C=CC(=O)Nc1cc(Nc2cc(N3OCC[C@@H]3c3cc(F)ccc3F)ncn2)c(OC)cc1N1CCC(N2CC[C@H](N(C)C)C2)CC1` [compound 816, N-(5-((6-((R)-3-(2,5-difluorophenyl)isoxazolidine-2-yl)pyrimidine-4-yl)amino)-2-(4-((S)-3-(dimethylamino)pyrolidine-1-yl)piperidine-1-yl)-4-methoxyphenyl) acrylamide]: “A (GI50 < 50 nM)”. For `C=CC(=O)Nc1cc(Nc2cc(N3OCC[C@@H]3c3ccc(Cl)c(Cl)c3)ncn2)c(OC)cc1N1CCC(N2CCOCC2)CC1` [compound 683, N-(5-((6-((R)-3-(3,4-dichlorophenyl)isoxazolidine-2-yl)pyrimidine-4-yl)amino)-4-methoxy-2-(4-morpholinopiperidine-1-yl)phenyl)acrylamide], the “Ba/F3 (NPH) Activity” value is listed as “A (GI50 < 50 nM)”. Next, `C=CC(=O)Nc1cc(Nc2cc(N3OCC[C@@H]3c3ccc(Cl)cc3F)ncn2)c(OC)cc1N1CCN(C)CC1` [compound 372, N-(5-((6-((R)-3-(4-chloro-2-fluorophenyl)isoxazolidine-2-yl)pyrimidine-4-yl)amino)-4-methoxy-2-(4-methylpiperazine-1-yl)phenyl)acrylamide]: “A (GI50 < 50 nM)”.
